# ChEMBL document CHEMBL1250423, “Terpioside B, a difucosyl GSL from the marine sponge Terpios sp. is a potent inhibitor of NO release” (Bioorg Med Chem, 2010)
# The source made the active and inactive calls. The calls are words filed in the database; no cut-off is given here.
# Molecular target: T1, Nitric oxide synthase, inducible (Mus musculus) (UniProt P29477)
# T1 sequence (whole entry): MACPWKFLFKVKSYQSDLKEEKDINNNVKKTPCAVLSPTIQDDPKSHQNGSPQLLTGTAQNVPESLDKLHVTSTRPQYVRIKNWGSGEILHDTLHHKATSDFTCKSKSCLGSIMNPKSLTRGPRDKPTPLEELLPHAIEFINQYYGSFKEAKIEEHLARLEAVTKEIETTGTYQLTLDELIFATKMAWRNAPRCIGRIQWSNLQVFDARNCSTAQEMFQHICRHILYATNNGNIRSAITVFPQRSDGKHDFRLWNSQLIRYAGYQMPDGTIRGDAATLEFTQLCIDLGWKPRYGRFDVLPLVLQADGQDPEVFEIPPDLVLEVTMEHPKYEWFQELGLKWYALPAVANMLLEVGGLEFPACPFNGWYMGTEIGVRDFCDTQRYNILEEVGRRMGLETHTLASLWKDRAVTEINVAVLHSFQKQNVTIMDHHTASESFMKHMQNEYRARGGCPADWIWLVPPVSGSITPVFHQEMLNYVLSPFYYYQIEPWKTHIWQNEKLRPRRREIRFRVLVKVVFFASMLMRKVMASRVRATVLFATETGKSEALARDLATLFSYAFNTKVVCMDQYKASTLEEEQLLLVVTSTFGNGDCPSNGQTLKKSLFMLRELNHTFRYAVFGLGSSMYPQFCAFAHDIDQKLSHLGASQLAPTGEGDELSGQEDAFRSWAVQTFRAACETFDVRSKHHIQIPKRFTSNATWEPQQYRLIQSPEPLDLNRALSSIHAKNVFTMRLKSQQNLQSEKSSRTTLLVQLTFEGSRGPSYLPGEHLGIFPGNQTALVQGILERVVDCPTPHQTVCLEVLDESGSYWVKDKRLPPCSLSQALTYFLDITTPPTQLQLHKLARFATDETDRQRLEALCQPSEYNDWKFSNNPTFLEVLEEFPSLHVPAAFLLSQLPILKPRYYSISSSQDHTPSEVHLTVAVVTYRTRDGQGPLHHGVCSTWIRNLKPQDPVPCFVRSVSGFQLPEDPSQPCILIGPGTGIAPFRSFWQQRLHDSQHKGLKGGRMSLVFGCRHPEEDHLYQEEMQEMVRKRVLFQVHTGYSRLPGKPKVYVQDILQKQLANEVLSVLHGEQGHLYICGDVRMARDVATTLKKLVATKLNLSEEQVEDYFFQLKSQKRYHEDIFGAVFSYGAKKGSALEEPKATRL
# Experiment: Inhibition of iNOS in mouse J774.2 cells assessed as reduction of LPS-induced nitric oxide production at 1 to 10 uM after 24 hrs by Griess reaction
# Format: cell-based
smiles,measurement,value
CCCCCCCCCCCCCCCCCCCCCC[C@@H](O)C(=O)N[C@@H](CO[C@@H]1O[C@H](CO)[C@@H](O)[C@H](O[C@@H]2O[C@H]([C@H](C)O)[C@@H](O)[C@@H]2O)[C@H]1O)[C@H](O)[C@H](O)CCCCCCCCCCCC(C)CC (stereo partly specified),inhibition,Active
